Measurements published in US20220096515A1, “Methods and Formulations for Preventing Neurological or Psychiatric Disorders” (Huntington Medical Research Institutes, priority 2020, published 2022).

Legend:
Assay type in all cases: in vivo, mouse
[1] = Litter size and pup growth after prenatal treatment; settings: prenatal NAD^+ treatment
Gabrb3^fl/fl littermates = assay: Prenatal NAD+ treatment, H&E of MGE in Gabrb3^fl/fl littermates; settings: NAD^+-treated Gabrb3^fl/fl littermates
Method: Histology, immunohistochemistry, and microscopic analysis: Paraffin immunohistochemistry (IHC) was performed on embryonic brains only while frozen section IHC was used on both embryonic and adult brains. Briefly, for paraffin IHC-E18 brains were fixed in zinc fixative (BD Biosciences PharMingen) for 24 h and processed for paraffin histology. Histological stainings with hematoxylin (Vector Laboratories) and eosin (Sigma) were performed on 8 μm coronal sections. Lectin histochemistry (with biotinylated isolectin B4, 1:50, Sigma) as well as IHC was performed on 20 μm sections. Primary antibodies used for IHC were as follows: anti-PHH3 (1:200, Millipore) and anti-NKX2.1, (1:50; Sigma) followed by secondary detection with AlexaFluor conjugates (Invitrogen). DAPI (Vector Laboratories) was used to label nuclei. For frozen section IHC, E18 and P90 brains were removed, fixed in 4% PFA for 24 hours, cryo-protected in sucrose gradient, embedded into OCT medium for frozen blocks; sectioned at 40 μm on a cryostat and immunostained with anti-GABA (1:80, Sigma) and anti -PROX1 (1:80, Millipore) antibodies. Twenty sections from each brain were used for IHC and histology experiments. Uniform penetration of antibodies or stains throughout the section was ascertained and quality of the staining in each digital section was examined. […]

Gabrb3^ECKO mice [2] = assay: Light-dark transition test; settings: after prenatal treatment
Method: (§1) Behavioral Experiments: Mice were housed in our animal facility with a 12-hour light cycle with ad libitum access to food and water. Offspring stayed with their mothers until weaning at PND 21 after which males and females were separated. Before all behavioral testing, mice were acclimated to the testing room for 1 hour. Behavioral assays were performed according to established protocols referenced here: self-grooming, light-dark box, tail suspension test, Y-maze, open field locomotion activity, three chamber social interaction test and nest building with nestlets and with shredded paper. Both males and females were used for all behavioral assays. Experimenters scoring behaviors were blinded to the genotypes and treatment. Sample sizes for each assay are noted in figure legends.
(§2) Anxiety was next assessed with the classic light-dark transition test which triggers a struggle between the desires to explore a novel environment versus natural aversion of a brightly illuminated open space. […] The Y maze spontaneous alternation test was used to evaluate for spatial learning and memory in the three groups of mice. After introduction to the center of the maze, the mice were given free access to all three arms. […] The total number of arm entries and the sequence of entries are recorded in order to calculate the percentage of alternation. […]

GAD65-GFP knock in mice = assay: E12-E17 NAD+ injection paradigm in GAD65-GFP knock in mice; settings: E18, vs NAD^+-untreated group
From the text: Animals: Timed pregnant CD1 mice were purchased from Charles River laboratories, MA. Colonies of GAD65-GFP mice were maintained in our institutional animal facility. Tie2-cre mice and Gabrb3 floxed (Gabrb3^fl/fl) mice were obtained from Jackson Labs. The Tie2-cre transgene is known for uniform expression of cre-recombinase in endothelial cells during embryogenesis and adulthood. To selectively delete Gabrb3 in endothelial cells, Tie2-cre transgenic mice (males) were crossed to Gabrb3^fl/fl mice (females) to generate Tie2-cre; Gabrb3^fl/+ mice (males). These were further crossed with Gabrb3^fl/fl mice (females) to obtain the Gabrb3 conditional knock-outs (Tie2-cre; Gabrb3^fl/fl mice). The day of plug discovery was designated embryonic day 0 (E0). Animal experiments were in full compliance with the NIH Guide for Care and Use of Laboratory Animals and were approved by the HMRI and McLean Institutional Animal Care Committees.
To test if the prenatal NAD^+ treatment was able to influence GABAergic neuronal migration, an in vitro neuronal migration assay was performed (FIG. 6M), after the in vivo NAD^+ treatment paradigm (E12-E17). […] This aspect was further explored by using the E12-E17 NAD^+ injection paradigm in GAD65-GFP knock in mice (FIGS. 6P-6T). Images of GFP^+ cells that had entered the dorsal telencephalon at E18 were collected and analyzed. […]

Gabrb3^ECKO mice [3] = assay: Tail suspension test; settings: vs saline-treated Gabrb3^ECKO mice
Method: as §1, §2

NC(=O)c1ccc[n+]([C@@H]2O[C@H](COP(=O)([O-])OP(=O)(O)OC[C@H]3O[C@@H](n4cnc5c(N)ncnc54)[C@H](O)[C@@H]3O)[C@@H](O)[C@H]2O)c1 [NAD^+]
growth of pups [1]: grew normally to adulthood | litter size [1]: did not have any effect on litter size | cellular arrangement in MGE (H&E) (Gabrb3^fl/fl littermates): the same distinct cellular arrangement in the MGE | time in light vs dark sides (Gabrb3^ECKO mice [2]): spent equivalent times between the light and dark sides of the open field | percentage of GFP^+ cells in dorsal telencephalon (GAD65-GFP knock in mice): significant increase in the percentage of GFP^+ cells | immobility times (Gabrb3^ECKO mice [3]): significantly lower immobility times
